# Literature values as cited in PubChem BioAssay AID1259409 (Chemical Carcinogenesis Research Information System (CCRIS), 2018).
# System: rodent chemically induced tumor inhibition, incidence and multiplicity
# Assay: CCRIS tumor inhibitor studies
# Conditions: Dose [Inhibitor]: 0, Route [Inhibitor]: ORAL
structure (smiles),measurement,setting,value
COc1ccc(-c2cc(=O)c3c(O)cc(O[C@@H]4O[C@H](CO[C@@H]5O[C@@H](C)[C@H](O)[C@@H](O)[C@H]5O)[C@@H](O)[C@H](O)[C@H]4O)cc3o2)cc1O,"tumour outcome (control, treated, inhibition, significance)","Carcinogen: 4-NITROQUINOLINE-1-OXIDE, 56-57-5, 1000 PPM IN DIET FOR 10 WK BEGINNING 1 WK PRIOR TO CARCINOGEN TREATMENT (STUDY DURATION: 32 WK), Species: RAT, Strain/Sex: F344/MALE, Target Tissue: Type of Lesion: TONGUE: PAPILLOMA, Dose [Carcinogen]: 20 PPM IN DRINKING WATER FOR 8 WK, Promoter: NONE USED","8/17 (47%), 1/19 (5%), 89%, p<0.01"
same,"tumour outcome (control, treated, inhibition, significance)","Carcinogen: 4-NITROQUINOLINE-1-OXIDE, 56-57-5, 1000 PPM IN DIET FOR 10 WK BEGINNING 1 WK PRIOR TO CARCINOGEN TREATMENT (STUDY DURATION: 32 WK), Species: RAT, Strain/Sex: R344/MALE, Target Tissue: Type of Lesion: TONGUE: SQUAMOUS CELL CARCINOMA, Dose [Carcinogen]: 20 PPM IN DRINKING WATER FOR 8 WK, Promoter: NONE USED","11/17 (65%), 4/19 (21%), 68%, p<0.01"
same,"tumour outcome (control, treated, inhibition, significance)","Carcinogen: 4-NITROQUINOLINE-1-OXIDE, 56-57-5, 1000 PPM IN DIET FOR 22 WK BEGINNING 1 WK POST CARCINOGEN TREATMENT (STUDY DURATION: 32 WK), Species: RAT, Strain/Sex: F344/MALE, Target Tissue: Type of Lesion: TONGUE: PAPILLOMA, Dose [Carcinogen]: 20 PPM IN DRINKING WATER FOR 8 WK, Promoter: NONE USED","8/17 (47%), 2/20 (10%), 79%, p<0.05"
same,"tumour outcome (control, treated, inhibition, significance)","Carcinogen: 4-NITROQUINOLINE-1-OXIDE, 56-57-5, 1000 PPM IN DIET FOR 22 WK BEGINNING 1 WK POST CARCINOGEN TREATMENT (STUDY DURATION: 32 WK), Species: RAT, Strain/Sex: F344/MALE, Target Tissue: Type of Lesion: TONGUE: SQUAMOUS CELL CARCINOMA, Dose [Carcinogen]: 20 PPM IN DRINKING WATER FOR 8 WK, Promoter: NONE USED","11/17 (65%), 3/20 (15%), 77%, p<0.05"
same,"tumour outcome (control, treated, inhibition, significance)","Carcinogen: AZOXYMETHANE, 25843-45-2, 0.1% IN DIET FOR 4 WK BEGINNING 1 WK PRIOR TO CARCINOGEN TREATMENT (STUDY DURATION: 32 WK), Species: RAT, Strain/Sex: F344/MALE, Target Tissue: Type of Lesion: COLON: ADENOCARCINOMA, Dose [Carcinogen]: 15 MG/KG BW 1/WK FOR 3 WK, Promoter: NONE","70%, 22%, 69%, p<0.005"
same,"tumour outcome (control, treated, inhibition, significance)","Carcinogen: AZOXYMETHANE, 25843-45-2, 0.1% IN DIET FOR 28 WK BEGINNING 1 WK POST LAST CARCINOGEN DOSE (STUDY DURATION: 32 WK), Species: RAT, Strain/Sex: F344/MALE, Target Tissue: Type of Lesion: COLON: ADENOCARCINOMA, Dose [Carcinogen]: 15 MG/KG BW 1/WK FOR 3 WK, Promoter: NONE","70%, 5%, 93%, p<0.001"
same,"tumour outcome (control, treated, inhibition, significance)","Carcinogen: AZOXYMETHANE, 25843-45-2, 1000 PPM IN DIET FOR 4 WK BEGINNING 1 WK PRIOR TO CARCINOGEN TREATMENT (STUDY DURATION: 32 WK), Species: RAT, Strain/Sex: F344/MALE, Target Tissue: Type of Lesion: LARGE INTESTINE: TUMOR, Dose [Carcinogen]: 15 MG/KG BW 1/WK FOR 3 WK, Promoter: NONE USED","12/17 (71%), 5/19 (26%), 63%, p<0.01"
same,"tumour outcome (control, treated, inhibition, significance)","Carcinogen: AZOXYMETHANE, 25843-45-2, 1000 PPM IN DIET FOR 4 WK BEGINNING 1 WK PRIOR TO CARCINOGEN TREATMENT (STUDY DURATION: 32 WK), Species: RAT, Strain/Sex: F344/MALE, Target Tissue: Type of Lesion: SMALL INTESTINE: TUMOR, Dose [Carcinogen]: 15 MG/KG BW 1/WK FOR 3 WK, Promoter: NONE USED","5/17 (29%), 0/19 (0%), 100%, p<0.05"
same,"tumour outcome (control, treated, inhibition, significance)","Carcinogen: AZOXYMETHANE, 25843-45-2, 1000 PPM IN DIET FOR 28 WK BEGINNING 1 WK POST CARCINOGEN TREATMENT (STUDY DURATION: 32 WK), Species: RAT, Strain/Sex: F344/MALE, Target Tissue: Type of Lesion: LARGE INTESTINE: TUMOR, Dose [Carcinogen]: 15 MG/KG BW 1/WK FOR 3 WK, Promoter: NONE USED","12/17 (71%), 3/20 (15%), 79%, p<0.001"
same,"tumour outcome (control, treated, inhibition, significance)","Carcinogen: AZOXYMETHANE, 25843-45-2, 1000 PPM IN DIET FOR 28 WK BEGINNING 1 WK POST CARCINOGEN TREATMENT (STUDY DURATION: 32 WK), Species: RAT, Strain/Sex: F344/MALE, Target Tissue: Type of Lesion: SMALL INTESTINE: TUMOR, Dose [Carcinogen]: 15 MG/KG BW 1/WK FOR 3 WK, Promoter: NONE USED","5/17 (29%), 2/20 (10%), 66%, not significant"
same,"tumour outcome (control, treated, inhibition, significance)","Carcinogen: N-BUTYL-N-(4-HYDROXYBUTYL)NITROSAMINE, 3817-11-6, 1000 PPM IN DIET FOR 8 WK BEGINNING 1 WK PRIOR TO CARCINOGEN TREATMENT (STUDY DURATION: 32 WK), Species: MOUSE, Strain/Sex: ICR/MALE, Target Tissue: Type of Lesion: URINARY BLADDER: PAPILLOMA, Dose [Carcinogen]: 500 PPM IN DRINKING WATER FOR 6 WK, Promoter: NONE USED","5/26 (19%), 4/24 (17%), 11%, not significant"
same,"tumour outcome (control, treated, inhibition, significance)","Carcinogen: N-BUTYL-N-(4-HYDROXYBUTYL)NITROSAMINE, 3817-11-6, 1000 PPM IN DIET FOR 8 WK BEGINNING 1 WK PRIOR TO CARCINOGEN TREATMENT (STUDY DURATION: 32 WK), Species: MOUSE, Strain/Sex: ICR/MALE, Target Tissue: Type of Lesion: URINARY BLADDER: TRANSITIONAL CELL CARCINOMA, Dose [Carcinogen]: 500 PPM IN DRINKING WATER FOR 6 WK, Promoter: NONE USED","16/26 (62%), 5/24 (21%), 66%, p<0.005"
same,"tumour outcome (control, treated, inhibition, significance)","Carcinogen: N-BUTYL-N-(4-HYDROXYBUTYL)NITROSAMINE, 3817-11-6, 1000 PPM IN DIET FOR 24 WK BEGINNING 1 WK POST CARCINOGEN TREATMENT (STUDY DURATION: 32 WK), Species: MOUSE, Strain/Sex: ICR/MALE, Target Tissue: Type of Lesion: URINARY BLADDER: PAPILLOMA, Dose [Carcinogen]: 500 PPM IN DRINKING WATER FOR 6 WK, Promoter: NONE USED","5/26 (19%), 3/24 (13%), 32%, not significant"
same,"tumour outcome (control, treated, inhibition, significance)","Carcinogen: N-BUTYL-N-(4-HYDROXYBUTYL)NITROSAMINE, 3817-11-6, 1000 PPM IN DIET FOR 24 WK BEGINNING 1 WK POST CARCINOGEN TREATMENT (STUDY DURATION: 32 WK), Species: MOUSE, Strain/Sex: ICR/MALE, Target Tissue: Type of Lesion: URINARY BLADDER: TRANSITIONAL CELL CARCINOMA, Dose [Carcinogen]: 500 PPM IN DRINKING WATER FOR 6 WK, Promoter: NONE USED","16/26 (62%), 2/24 (8%), 87%, p<0.0001"
same,"tumour outcome (control, treated, inhibition, significance)","Carcinogen: N-METHYL-N-AMYLNITROSAMINE, 13256-07-0, 1000 PPM IN DIET FOR 7 WK BEGINNING 1 WK POST CARCINOGEN TREATMENT (STUDY DURATION: 20 WK), Species: RAT, Strain/Sex: WISTAR/MALE, Target Tissue: Type of Lesion: ESOPHAGUS: SQUAMOUS CELL CARCINOMA, Dose [Carcinogen]: 12.5 MG/KG BW 1/WK FOR 12 WK, Promoter: NONE USED","75%, 39%, 48%, not significant"
same,"tumour outcome (control, treated, inhibition, significance)","Carcinogen: N-METHYL-N-AMYLNITROSAMINE, 13256-07-0, 1000 PPM IN DIET FOR 7 WK BEGINNING 1 WK POST CARCINOGEN TREATMENT (STUDY DURATION: 20 WK), Species: RAT, Strain/Sex: WISTAR/MALE, Target Tissue: Type of Lesion: ESOPHAGUS: SQUAMOUS CELL PAPILLOMA, Dose [Carcinogen]: 12.5 MG/KG BW 1/WK FOR 12 WK, Promoter: NONE USED","100%, 100%, 0%, not significant"
same,"tumour outcome (control, treated, inhibition, significance)","Carcinogen: N-METHYL-N-AMYLNITROSAMINE, 13256-07-0, 1000 PPM IN DIET FOR 7 WK BEGINNING 1 WK POST CARCINOGEN TREATMENT (STUDY DURATION: 20 WK), Species: RAT, Strain/Sex: WISTAR/MALE, Target Tissue: Type of Lesion: TONGUE: SQUAMOUS CELL CARCINOMA, Dose [Carcinogen]: 12.5 MG/KG BW 1/WK FOR 12 WK, Promoter: NONE USED","17%, 0%, 100%, not calculated"
same,"tumour outcome (control, treated, inhibition, significance)","Carcinogen: N-METHYL-N-AMYLNITROSAMINE, 13256-07-0, 1000 PPM IN DIET FOR 7 WK BEGINNING 1 WK POST CARCINOGEN TREATMENT (STUDY DURATION: 20 WK), Species: RAT, Strain/Sex: WISTAR/MALE, Target Tissue: Type of Lesion: TONGUE: SQUAMOUS CELL PAPILLOMA, Dose [Carcinogen]: 12.5 MG/KG BW 1/WK FOR 12 WK, Promoter: NONE USED","33%, 11%, 67%, not calculated"
same,"tumour outcome (control, treated, inhibition, significance)","Carcinogen: N-METHYL-N-AMYLNITROSAMINE, 13256-07-0, 1000 PPM IN DIET FOR 13 WK BEGINNING 1 WK PRIOR TO CARCINOGEN TREATMENT (STUDY DURATION: 20 WK), Species: RAT, Strain/Sex: WISTAR/MALE, Target Tissue: Type of Lesion: ESOPHAGUS: SQUAMOUS CELL CARCINOMA, Dose [Carcinogen]: 12.5 MG/KG BW 1/WK FOR 12 WK, Promoter: NONE USED","75%, 29%, 61%, p<0.05"
same,"tumour outcome (control, treated, inhibition, significance)","Carcinogen: N-METHYL-N-AMYLNITROSAMINE, 13256-07-0, 1000 PPM IN DIET FOR 13 WK BEGINNING 1 WK PRIOR TO CARCINOGEN TREATMENT (STUDY DURATION: 20 WK), Species: RAT, Strain/Sex: WISTAR/MALE, Target Tissue: Type of Lesion: ESOPHAGUS: SQUAMOUS CELL PAPILLOMA, Dose [Carcinogen]: 12.5 MG/KG BW 1/WK FOR 12 WK, Promoter: NONE USED","100%, 100%, 0%, not significant"
same,"tumour outcome (control, treated, inhibition, significance)","Carcinogen: N-METHYL-N-AMYLNITROSAMINE, 13256-07-0, 1000 PPM IN DIET FOR 13 WK BEGINNING 1 WK PRIOR TO CARCINOGEN TREATMENT (STUDY DURATION: 20 WK), Species: RAT, Strain/Sex: WISTAR/MALE, Target Tissue: Type of Lesion: TONGUE: SQUAMOUS CELL CARCINOMA, Dose [Carcinogen]: 12.5 MG/KG BW 1/WK FOR 12 WK, Promoter: NONE USED","17%, 0%, 100%, not calculated"
same,"tumour outcome (control, treated, inhibition, significance)","Carcinogen: N-METHYL-N-AMYLNITROSAMINE, 13256-07-0, 1000 PPM IN DIET FOR 13 WK BEGINNING 1 WK PRIOR TO CARCINOGEN TREATMENT (STUDY DURATION: 20 WK), Species: RAT, Strain/Sex: WISTAR/MALE, Target Tissue: Type of Lesion: TONGUE: SQUAMOUS CELL PAPILLOMA, Dose [Carcinogen]: 12.5 MG/KG BW 1/WK FOR 12 WK, Promoter: NONE USED","33%, 6%, 82%, not calculated"
